Data taken from patent US20170320870A1 (Medical Research Council Technology, priority 2009, published 2017).
pIC50: −log10 of the molar value.

Target: T1, LRRK2 wild type (recombinant human, catalytic domain amino acids 970-2527, GST-tagged) (Homo sapiens, UniProt Q5S007)
T1 construct: The wild type used was recombinant human, catalytic domain (amino acids 970-2527) GST-tagged, expressed in insect cells; GST; purchased Invitrogen Corporation PV4873; host or cells: insect cells
Assay: LRRK2 wild type protein kinase assay ([γ-33P] ATP, peptide substrate […]), IC50
Type: biochemical
Settings: LRRK2 (variant not given); read-out: Potency score, LRRK2 IC50
How it was run: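 Insect-cell-expressed enzyme (~5 nM), no activation, incubated 180 min at ~21 °C in 50 mM Tris-HCl pH 7.5, 0.1 mM EGTA, 1 mM DTT, 10 mM MgCl2 with 100 μM peptide substrate and [γ-33P]ATP. Reaction stopped with orthophosphoric acid, captured on P81 filters and counted; IC50 from 10 concentrations in duplicate.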

T1 sequence (Q5S007 970-2527): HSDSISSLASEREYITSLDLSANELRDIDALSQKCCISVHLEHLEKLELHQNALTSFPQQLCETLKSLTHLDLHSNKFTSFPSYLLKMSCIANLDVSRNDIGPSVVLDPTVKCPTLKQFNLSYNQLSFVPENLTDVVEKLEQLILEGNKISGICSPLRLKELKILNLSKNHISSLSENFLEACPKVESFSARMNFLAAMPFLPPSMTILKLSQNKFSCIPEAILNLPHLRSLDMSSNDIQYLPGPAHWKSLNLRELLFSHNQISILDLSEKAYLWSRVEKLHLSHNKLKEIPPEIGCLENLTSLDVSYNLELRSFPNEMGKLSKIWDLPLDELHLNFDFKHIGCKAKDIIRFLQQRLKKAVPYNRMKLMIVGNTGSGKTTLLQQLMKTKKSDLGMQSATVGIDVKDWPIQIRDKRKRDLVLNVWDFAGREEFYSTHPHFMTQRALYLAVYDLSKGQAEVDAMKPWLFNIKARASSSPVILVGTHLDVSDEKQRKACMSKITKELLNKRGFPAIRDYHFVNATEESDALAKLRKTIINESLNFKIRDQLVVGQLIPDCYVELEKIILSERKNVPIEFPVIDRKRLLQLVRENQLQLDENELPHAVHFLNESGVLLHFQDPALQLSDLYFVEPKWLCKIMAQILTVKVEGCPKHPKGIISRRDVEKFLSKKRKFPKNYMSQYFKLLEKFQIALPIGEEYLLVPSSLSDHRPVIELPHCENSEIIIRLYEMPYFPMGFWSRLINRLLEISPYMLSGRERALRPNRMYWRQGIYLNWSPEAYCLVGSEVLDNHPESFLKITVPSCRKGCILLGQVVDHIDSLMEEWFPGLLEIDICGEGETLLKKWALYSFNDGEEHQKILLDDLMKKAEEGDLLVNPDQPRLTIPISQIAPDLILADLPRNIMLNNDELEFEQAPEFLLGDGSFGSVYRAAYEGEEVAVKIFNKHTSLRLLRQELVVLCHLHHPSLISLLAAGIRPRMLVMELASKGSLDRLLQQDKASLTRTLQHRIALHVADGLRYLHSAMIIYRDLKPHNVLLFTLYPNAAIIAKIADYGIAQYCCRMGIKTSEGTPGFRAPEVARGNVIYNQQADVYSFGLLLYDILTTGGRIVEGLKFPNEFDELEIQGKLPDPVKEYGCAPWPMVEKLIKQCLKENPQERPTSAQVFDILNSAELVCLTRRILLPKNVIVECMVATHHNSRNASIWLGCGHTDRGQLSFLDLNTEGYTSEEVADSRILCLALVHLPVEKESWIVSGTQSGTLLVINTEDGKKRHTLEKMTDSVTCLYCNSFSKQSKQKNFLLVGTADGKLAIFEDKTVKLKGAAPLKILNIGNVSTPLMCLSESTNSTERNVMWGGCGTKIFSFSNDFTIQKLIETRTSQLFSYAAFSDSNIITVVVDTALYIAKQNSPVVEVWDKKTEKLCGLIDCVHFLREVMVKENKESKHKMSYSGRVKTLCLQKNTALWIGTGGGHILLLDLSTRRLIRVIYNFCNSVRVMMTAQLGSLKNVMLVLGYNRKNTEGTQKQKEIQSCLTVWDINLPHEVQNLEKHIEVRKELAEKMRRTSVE

`CC(=O)Nc1cccc(NC(=O)c2ccc(CCc3n[nH]c4ccnc(NC5CCCCC5)c34)cc2)c1` [Example 255, N-(3-Acetylamino-phenyl)-4-[2-(4-cyclohexylamino-1H-pyrazolo[4,3-c]pyridin-3-yl)-ethyl]-benzamide] and `CC(=O)Nc1ccc(C(=O)Nc2ccc(CCc3n[nH]c4ccnc(NC5CCCCC5)c34)cc2)cc1` [Example 264, 4-Acetylamino-N-{4-[2-(4-cyclohexylamino-1H-pyrazolo[4,3-c]pyridin-3-yl)-ethyl]-phenyl}-benzamide] cannot be ordered by pIC50: over 7.00 for the first, over 7.00 for the second.

First: Cc1n[nH]c2ccnc(NC3CCN(C(=O)C4CCC4)CC3)c12 [Example 104, Cyclobutyl-[4-(3-methyl-1H-pyrazolo[4,3-c]pyridin-4-ylamino)-piperidin-1-yl]-methanone]
Second: Cc1n[nH]c2ccnc(NC3CCC3)c12 [Example 22, Cyclobutyl-(3-methyl-1H-pyrazolo[4,3-c]pyridin-4-yl)-amine]
The pIC50 of the first is lower: 5.00 to 6.00 for the first, 6.00 to 7.00 for the second.

`CCOc1ccccc1CNc1nccc2[nH]nc(C)c12` [Example 340, (2-Ethoxy-benzyl)-(3-methyl-1H-pyrazolo[4,3-c]pyridin-4-yl)-amine] and `Cc1n[nH]c2ccnc(NCc3cccc(F)c3)c12` [Example 317, (3-Fluoro-benzyl)-(3-methyl-1H-pyrazolo[4,3-c]pyridin-4-yl)-amine] fall in the same range of pIC50: 5.00 to 6.00 for the first, 5.00 to 6.00 for the second.

First: Cc1n[nH]c2ccnc(OC3CCOCC3)c12 [Example 118, 3-Methyl-4-(tetrahydro-pyran-4-yloxy)-1H-pyrazolo[4,3-c]pyridine]
Second: Cc1n[nH]c2ccnc(O[C@H]3CC[C@H](C)CC3)c12 [Example 294, Trans-3-Methyl-4-(4-methyl-cyclohexyloxy)-1H-pyrazolo[4,3-c]pyridine]
The pIC50 of the first is lower: 6.00 to 7.00 for the first, over 7.00 for the second. The second is the more potent here.

Compared with `Cc1n[nH]c2ccnc(NC3CCCCC3)c12` [Example 3, Cyclohexyl-(3-methyl-1H-pyrazolo[4,3-c]pyridin-4-yl)-amine], `OCCCc1n[nH]c2ccnc(NC3CCCCC3)c12` [Example 231, 3-(4-Cyclohexylamino-1H-pyrazolo[4,3-c]pyridin-3-yl)-propan-1-ol] is lower in pIC50: 6.00 to 7.00 for the first, 5.00 to 6.00 for the second.

First: Cc1n[nH]c2ccnc(OCCC(F)(F)F)c12 [Example 295, 3-Methyl-4-(3,3,3-trifluoro-propoxy)-1H-pyrazolo[4,3-c]pyridine]
Second: Cc1n[nH]c2ccnc(NCc3ccc(C(F)(F)F)cc3)c12 [Example 326, (3-Methyl-1H-pyrazolo[4,3-c]pyridin-4-yl)-4-(4-trifluoromethyl-benzyl)-amine]
The pIC50 of the first is higher: 6.00 to 7.00 for the first, 5.00 to 6.00 for the second. The first is the more potent here.

`Cc1n[nH]c2ccnc(N[C@@H](C)c3ccccc3)c12` [Example 29, (3-Methyl-1H-pyrazolo[4,3-c]pyridin-4-yl)-((S)-1-phenyl-ethyl)-amine] and `Cc1n[nH]c2ccnc(Nc3ccccn3)c12` [Example 94, (3-Methyl-1H-pyrazolo[4,3-c]pyridin-4-yl)-pyridin-2-yl-amine] fall in the same range of pIC50: 5.00 to 6.00 for the first, 5.00 to 6.00 for the second.

`Cn1cnc(C(=O)Nc2ccc(CCc3n[nH]c4ccnc(NC5CCCCC5)c34)cc2)c1` [Example 269, 1-Methyl-1H-imidazole-4-carboxylic acid {4-[2-(4-cyclohexylamino-1H-pyrazolo[4,3-c]pyridin-3-yl)-ethyl]-phenyl}-amide] and `O=C(Nc1ccc(CCc2n[nH]c3ccnc(NC4CCCCC4)c23)cc1)c1ccccn1` [Example 265, Pyridine-2-carboxylic acid {4-[2-(4-cyclohexylamino-1H-pyrazolo[4,3-c]pyridin-3-yl)-ethyl]-phenyl}-amide] cannot be ordered by pIC50: over 7.00 for the first, over 7.00 for the second.

`COCCNC(=O)CCc1n[nH]c2ccnc(NC3CCCCC3)c12` [Example 211, 3-(4-Cyclohexylamino-1H-pyrazolo[4,3-c]pyridin-3-yl)-N-(2-methoxy-ethyl)-propionamide] and `CNC(=O)CCc1n[nH]c2ccnc(NC3CCCCC3)c12` [Example 210, 3-(4-Cyclohexylamino-1H-pyrazolo[4,3-c]pyridin-3-yl)-N-methyl-propionamide] fall in the same range of pIC50: 5.00 to 6.00 for the first, 5.00 to 6.00 for the second.

`Cc1n[nH]c2ccnc(NCc3ccc(Cl)cc3)c12` [Example 1, (4-Chloro-benzyl)-(3-methyl-1H-pyrazolo[4,3-c]pyridin-4-yl)-amine] and `Cc1n[nH]c2ccnc(NCCC(C)C)c12` [Example 343, (3-Methyl-butyl)-(3-methyl-1H-pyrazolo[4,3-c]pyridin-4-yl)-amine] fall in the same range of pIC50: 5.00 to 6.00 for the first, 5.00 to 6.00 for the second.

First: O=C(c1ccc(CCc2n[nH]c3ccnc(NC4CCCCC4)c23)cc1)N1CCOCC1 [Example 253, {4-[2-(4-Cyclohexylamino-1H-pyrazolo[4,3-c]pyridin-3-yl)-ethyl]-phenyl}-morpholin-4-yl-methanone]
Second: CN1CCC(C(=O)Nc2ccc(CCc3n[nH]c4ccnc(NC5CCCCC5)c34)cc2)CC1 [Example 271, 1-Methyl-piperidine-4-carboxylic acid {4-[2-(4-cyclohexylamino-1H-pyrazolo[4,3-c]pyridin-3-yl)-ethyl]-phenyl}-amide]
The pIC50 of the first is higher: over 7.00 for the first, 6.00 to 7.00 for the second.

First: c1ccc(CCc2n[nH]c3ccnc(NC4CCCCC4)c23)nc1 [Example 214, Cyclohexyl-[3-(2-pyridin-2-yl-ethyl)-1H-pyrazolo[4,3-c]pyridin-4-yl]-amine]
Second: c1ccc(-c2nnc(CCc3n[nH]c4ccnc(NC5CCCCC5)c34)o2)cc1 [Example 216, Cyclohexyl-{3-[2-(5-phenyl-1,3,4-oxadiazol-2-yl)-ethyl]-1H-pyrazolo[4,3-c]pyridin-4-yl}-amine]
The pIC50 of the first is higher: over 7.00 for the first, 6.00 to 7.00 for the second. The first is the more potent here.

`O=C(CCc1n[nH]c2ccnc(NC3CCCCC3)c12)NC1CCCC1` [Example 184, 3-(4-Cyclohexylamino-1H-pyrazolo[4,3-c]pyridin-3-yl)-N-cyclopentyl-propionamide] and `O=C(CCc1n[nH]c2ccnc(NC3CCCCC3)c12)N1CCCC(C(F)(F)F)C1` (centres unmarked) [Example 202, 3-(4-Cyclohexylamino-1H-pyrazolo[4,3-c]pyridin-3-yl)-1-(3-trifluoromethyl-piperidin-1-yl)-propan-1-one] fall in the same range of pIC50: 6.00 to 7.00 for the first, 6.00 to 7.00 for the second.

First: Cc1n[nH]c2ccnc(Nc3ccc(N4CCN(C)CC4)cc3)c12 [Example 86, [4-(4-Methyl-piperazin-1-yl)-phenyl]-(3-methyl-1H-pyrazolo[4,3-c]pyridin-4-yl)-amine]
Second: Cc1n[nH]c2ccnc(Nc3ccc(N4CCCC4=O)cc3)c12 [Example 89, 1-[4-(3-Methyl-1H-pyrazolo[4,3-c]pyridin-4-ylamino)-phenyl]-pyrrolidin-2-one]
The pIC50 of the first is lower: 5.00 to 6.00 for the first, 6.00 to 7.00 for the second. The second is the more potent here.

`Cc1n[nH]c2ccnc(N3CCN(C)CC3)c12` [Example 5, 3-Methyl-4-(4-methyl-piperazin-1-yl)-1H-pyrazolo[4,3-c]pyridine] and `Cc1n[nH]c2ccnc(NCCCN3CCCC3=O)c12` [Example 324, 1-[3-(3-Methyl-1H-pyrazolo[4,3-c]pyridin-4-ylamino)-propyl]-pyrrolidin-2-one] fall in the same range of pIC50: 5.00 to 6.00 for the first, 5.00 to 6.00 for the second.

`Cc1cccc(-c2n[nH]c3ccnc(NC4CCCCC4)c23)c1` [Example 149, Cyclohexyl-(3-m-tolyl-1H-pyrazolo[4,3-c]pyridin-4-yl)-amine] and `Cc1ccc(-c2n[nH]c3ccnc(NC4CCCCC4)c23)cc1` [Example 148, Cyclohexyl-(3-p-tolyl-1H-pyrazolo[4,3-c]pyridin-4-yl)-amine] fall in the same range of pIC50: 6.00 to 7.00 for the first, 6.00 to 7.00 for the second.

`c1cc2[nH]nc(-c3cnn(CCN4CCOCC4)c3)c2c(NC2CCCCC2)n1` [Example 233, Cyclohexyl-{3-[1-(2-morpholin-4-yl-ethyl)-1H-pyrazol-4-yl]-1H-pyrazolo[4,3-c]pyridin-4-yl}-amine] and `c1cc2[nH]nc(-c3ccc(N4CCOCC4)nc3)c2c(NC2CCCCC2)n1` [Example 154, Cyclohexyl-[3-(6-morpholin-4-yl-pyridin-3-yl)-1H-pyrazolo[4,3-c]pyridin-4-yl]-amine] fall in the same range of pIC50: 6.00 to 7.00 for the first, 6.00 to 7.00 for the second.

Compared with `CC(C)n1cc(-c2n[nH]c3ccnc(NC4CCCCC4)c23)cn1` [Example 235, Cyclohexyl-[3-(1-isopropyl-1H-pyrazol-4-yl)-1H-pyrazolo[4,3-c]pyridin-4-yl]-amine], `COc1ccc(-c2n[nH]c3ccnc(NC4CCCCC4)c23)cn1` [Example 142, Cyclohexyl-[3-(6-methoxy-pyridin-3-yl)-1H-pyrazolo[4,3-c]pyridin-4-yl]-amine] is lower in pIC50: over 7.00 for the first, 5.00 to 6.00 for the second.

`Cc1n[nH]c2ccnc(Nc3cncc(-c4ccc(C#N)cc4)c3)c12` [Example 60, 4-[5-(3-Methyl-1H-pyrazolo[4,3-c]pyridin-4-ylamino)-pyridin-3-yl]-benzonitrile] and `Cc1n[nH]c2ccnc(Nc3ccc(C(=O)N4CCC(F)(F)CC4)cc3)c12` [Example 110, (4,4-Difluoro-piperidin-1-yl)-[4-(3-methyl-1H-pyrazolo[4,3-c]pyridin-4-ylamino)-phenyl]-methanone] fall in the same range of pIC50: 6.00 to 7.00 for the first, 6.00 to 7.00 for the second.

First: COc1ccc(-c2n[nH]c3ccnc(NC4CCCCC4)c23)cc1 [Example 141, Cyclohexyl-[3-(4-methoxy-phenyl)-1H-pyrazolo[4,3-c]pyridin-4-yl]-amine]
Second: FC(F)(F)c1ccc(-c2n[nH]c3ccnc(NC4CCCCC4)c23)cc1 [Example 157]
The pIC50 of the first is higher: 6.00 to 7.00 for the first, 5.00 to 6.00 for the second.

`O=C(CCc1n[nH]c2ccnc(NC3CCCCC3)c12)Nc1cccc(F)c1` [Example 187, 3-(4-Cyclohexylamino-1H-pyrazolo[4,3-c]pyridin-3-yl)-N-(3-fluoro-phenyl)-propionamide] and `Fc1cccc(-c2n[nH]c3ccnc(NC4CCCCC4)c23)c1F` [Example 159] fall in the same range of pIC50: 5.00 to 6.00 for the first, 5.00 to 6.00 for the second.

`Cc1n[nH]c2ccnc(NC3CCS(=O)(=O)CC3)c12` [Example 46, (1,1-Dioxo-hexahydro-1λ^6-thiopyran-4-yl)-(3-methyl-1H-pyrazolo[4,3-c]pyridin-4-yl)-amine] and `CN1CCOc2cc(-c3n[nH]c4ccnc(NC5CCCCC5)c34)ccc21` [Example 161, Cyclohexyl-[3-(4-methyl-3,4-dihydro-2H-1,4-benzoxazin-7-yl)-1H-pyrazolo[4,3-c]pyridin-4-yl]-amine] fall in the same range of pIC50: 6.00 to 7.00 for the first, 6.00 to 7.00 for the second.
